Data on 27 compounds can be found in patent US11377438B2, “2-amino-n-heteroaryl-nicotinamides as Nav1.8 inhibitors” (Merck Sharp & Dohme Corp., priority 2018, dated 2022).

As usually defined, the IC50 is the concentration at which inhibition is half-maximal.

The target in this experiment is human Nav1.8 (Homo sapiens (Human), UniProt Q9Y5Y9). The experiment is described as follows: Nav1.8 Qube automated patch-clamp assay. In kind it is cell-based. The note with it: human Nav1.8 stably expressed in HEK 293 cells, whole-cell voltage clamp, room temperature; read-out: IC50 (nM) in the Nav 1.8 Qube Assay. The method, then:
Qube® Assay Experimental Procedure Compounds were tested on human Nav1.8 and Nav1.5 channels stably expressed in human embryo kidney (HEK) 293 cells. Sodium current measurements on Qube® were conducted as follows: automated 384-well patch-clamp assays on the Qube® platform (Sophion Biosciences) were used to measure the inhibition of sodium flow through human Nav1.8 and Nav1.5 channels. Whole-cell voltage-clamp recordings were performed in QChips® (Sophion Biosciences) at room temperature. Nav1.8 current measurements on Qube® were obtained as follows: Nav1.8 currents were elicited with a 10 second 1 Hertz (Hz) pulse train from a holding potential of −90 millivolts (mV), delivered to the cells once per minute in the control condition (DMSO only) and after compound addition. The 1 hertz pulse train stimulation consisted often test pulses to 10 millivolt (mV) for 20 milliseconds (ms), each of which was followed by a 980 millisecond repolarization to −67 millivolts. At the end of the 10 second pulse train stimulation, a 5 second hyperpolarization step to −100 millivolt (mV) was used to recover Nav1.8 from fast inactivation. The peak currents elicited by the 1st and 10th test pulses were used to determine IC50 values for resting inhibition and inactivated state inhibition. Nav1.5 current measurements on Qube® were obtained as follows: Nav1.5 currents were elicited with a 20 second 3 Hertz pulse train in the control condition (DMSO only) and after compound addition. The pulse train consisted of sixty 20 millisecond test pulses to 0 millivolt from a holding potential of −80 millivolt (mV). The average peak currents elicited by the last 3 test pulses were used to determine IC50 values for Nav1.5 inhibition.
The following buffers were used for the Qube® recordings: External buffer for Nav1.8 Qube® recording: 150 NaCl, 2 CaCl2, 5 KCl, 1 Mg Cl2, 10 HEPES, 12 Dextrose; External buffer for Qube® Nav1.5 recording: 120 N-Methyl-D-Glucamine, 40 NaCl, 1 KCl, 2.7 CaCl2), 5 HEPES, 0.5 MgCl2; and Internal buffer for Qube® recording: 120 CsF, 30 CsCl, 10 EGTA, 5 HEPES, 5 NaF, 2 MgCl2.
For all Qube® experiments offline analysis was used to determine percent inhibition as a function of drug concentration. IC50 values were determined by fitting to the Hill equation.
(In general: The patch-clamp technique gives a direct electrical read-out from membranes.)

Sequence of human Nav1.8 (Q9Y5Y9 whole entry): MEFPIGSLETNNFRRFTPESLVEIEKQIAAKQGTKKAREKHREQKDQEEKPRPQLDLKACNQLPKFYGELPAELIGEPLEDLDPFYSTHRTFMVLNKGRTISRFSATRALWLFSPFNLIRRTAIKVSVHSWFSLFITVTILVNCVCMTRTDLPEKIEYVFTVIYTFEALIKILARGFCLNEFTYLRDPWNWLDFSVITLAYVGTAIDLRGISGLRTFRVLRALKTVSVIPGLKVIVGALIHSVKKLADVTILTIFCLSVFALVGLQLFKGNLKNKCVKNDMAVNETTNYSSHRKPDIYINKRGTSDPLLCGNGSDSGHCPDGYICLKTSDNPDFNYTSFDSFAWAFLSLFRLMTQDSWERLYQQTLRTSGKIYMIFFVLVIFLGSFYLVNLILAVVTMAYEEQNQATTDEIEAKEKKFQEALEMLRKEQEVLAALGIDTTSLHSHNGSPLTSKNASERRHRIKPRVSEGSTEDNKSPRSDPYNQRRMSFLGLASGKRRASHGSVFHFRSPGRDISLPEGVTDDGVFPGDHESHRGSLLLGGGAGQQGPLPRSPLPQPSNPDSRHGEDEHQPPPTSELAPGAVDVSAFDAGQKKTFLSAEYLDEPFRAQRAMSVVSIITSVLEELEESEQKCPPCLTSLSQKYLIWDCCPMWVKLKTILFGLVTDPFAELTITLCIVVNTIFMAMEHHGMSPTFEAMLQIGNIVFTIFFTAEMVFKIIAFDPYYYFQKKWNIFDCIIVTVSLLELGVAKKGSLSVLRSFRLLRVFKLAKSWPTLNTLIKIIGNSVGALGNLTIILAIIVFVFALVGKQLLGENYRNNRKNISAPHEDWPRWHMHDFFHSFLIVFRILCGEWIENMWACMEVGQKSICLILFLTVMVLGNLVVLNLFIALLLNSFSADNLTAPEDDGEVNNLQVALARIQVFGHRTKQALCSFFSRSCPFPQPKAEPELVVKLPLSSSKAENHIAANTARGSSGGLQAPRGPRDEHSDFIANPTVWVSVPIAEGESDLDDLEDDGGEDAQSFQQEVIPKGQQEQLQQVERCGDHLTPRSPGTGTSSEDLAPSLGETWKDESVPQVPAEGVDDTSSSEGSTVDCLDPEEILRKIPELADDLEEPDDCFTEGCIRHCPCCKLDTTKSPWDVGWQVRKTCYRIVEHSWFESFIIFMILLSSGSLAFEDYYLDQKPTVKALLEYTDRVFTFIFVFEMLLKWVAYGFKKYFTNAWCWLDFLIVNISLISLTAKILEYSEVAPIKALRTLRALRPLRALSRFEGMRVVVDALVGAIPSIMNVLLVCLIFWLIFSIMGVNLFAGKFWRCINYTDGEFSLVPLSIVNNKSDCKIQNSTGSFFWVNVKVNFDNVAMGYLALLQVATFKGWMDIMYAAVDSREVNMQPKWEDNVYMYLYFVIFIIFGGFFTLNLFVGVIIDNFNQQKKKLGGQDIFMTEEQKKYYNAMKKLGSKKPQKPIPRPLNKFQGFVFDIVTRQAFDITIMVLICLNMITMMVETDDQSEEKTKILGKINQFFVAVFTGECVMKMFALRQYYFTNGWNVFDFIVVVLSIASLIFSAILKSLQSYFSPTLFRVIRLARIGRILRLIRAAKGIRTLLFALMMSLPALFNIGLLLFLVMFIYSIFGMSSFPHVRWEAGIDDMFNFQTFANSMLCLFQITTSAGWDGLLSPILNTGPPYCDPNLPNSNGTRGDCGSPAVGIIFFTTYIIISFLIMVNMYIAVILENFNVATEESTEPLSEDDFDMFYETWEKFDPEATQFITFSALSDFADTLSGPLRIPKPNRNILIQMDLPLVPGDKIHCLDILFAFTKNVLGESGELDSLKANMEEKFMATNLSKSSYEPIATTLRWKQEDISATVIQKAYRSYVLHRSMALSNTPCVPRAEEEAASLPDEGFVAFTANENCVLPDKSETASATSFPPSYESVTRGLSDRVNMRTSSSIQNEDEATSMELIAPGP

Regarding `CC1CN(c2ncc(C(F)(F)F)cc2C(=O)Nc2ccnc(S(N)(=O)=O)c2)CCC(C(F)(F)F)O1` (single isomer, unassigned) [Example 121, 2-((2R,7S or 2S.7R)-2-methyl-7-(trifluoromethyl)-1,4-oxazepan-4-yl)-N-(2-sulfamoylpyridin-4-yl)-5-(trifluoromethyl)nicotinamide], the IC50 stood at 58 nM. As for `CC[C@@H]1CN(c2ncc(C(F)(F)F)cc2C(=O)Nc2ccnc(S(N)(=O)=O)c2)C[C@@H](C(F)(F)F)O1` (single isomer, unassigned) [Example 133, 2-((2R,6S or 2S,6R)-2-ethyl-6-(trifluoromethyl)morpholino)-N-(2-sulfamoylpyridin-4-yl)-5-(trifluoromethyl)nicotinamide], the IC50 turned out to be 12 nM. For `CC[C@H]1CN(c2ncc(C(F)(F)F)cc2C(=O)Nc2ccnc(S(N)(=O)=O)c2)C[C@H](C(F)(F)F)O1` (single isomer, unassigned) [Example 134, 2-((2S,6R or 2R,6S)-2-ethyl-6-(trifluoromethyl)morpholino)-N-(2-sulfamoylpyridin-4-yl)-5-(trifluoromethyl)nicotinamide] the value was 155 nM. For `C[C@@H]1CN(c2nc(C3CCC3)c(Cl)cc2C(=O)Nc2ccnc(S(N)(=O)=O)c2)C[C@@H](C(F)(F)F)O1` (single isomer, unassigned) [Example 160, 5-chloro-6-cyclobutyl-2-((2R,6S or 2S,6R)-2-methyl-6-(trifluoromethyl)morpholino)-N-(2-sulfamoylpyridin-4-yl)nicotinamide] the value was 9.2 nM. For `C[C@H]1CN(c2nc(C3CCC3)c(Cl)cc2C(=O)Nc2ccnc(S(N)(=O)=O)c2)C[C@H](C(F)(F)F)O1` (single isomer, unassigned) [Example 161, 5-chloro-6-cyclobutyl-2-((2S,6R or 2R,6S)-2-methyl-6-(trifluoromethyl)morpholino)-N-(2-sulfamoylpyridin-4-yl)nicotinamide] the value was 63 nM; for `C[C@@H]1CN(c2nc(C3CCC3)ccc2C(=O)Nc2ccnc(S(N)(=O)=O)c2)C[C@@H](C(F)(F)F)O1` (single isomer, unassigned) [Example 167, 6-cyclobutyl-2-((2R,6S or 2S,6R)-2-methyl-6-(trifluoromethyl)morpholino)-N-(2-sulfamoylpyridin-4-yl)nicotinamide], 52 nM. In the case of `C[C@H]1CN(c2nc(C3CCC3)ccc2C(=O)Nc2ccnc(S(N)(=O)=O)c2)C[C@H](C(F)(F)F)O1` (single isomer, unassigned) [Example 168, 6-cyclobutyl-2-((2S,6R or 2R,6S)-2-methyl-6-(trifluoromethyl)morpholino)-N-(2-sulfamoylpyridin-4-yl)nicotinamide], the IC50 was determined as 17 nM. For `NS(=O)(=O)c1cc(NC(=O)c2cc(C(F)(F)F)cnc2N2CCCC(F)(F)CC2)ccn1` [Example 13, 2-(4,4-difluoroazepan-1-yl)-N-(2-sulfamoylpyridin-4-yl)-5-(trifluoromethyl)nicotinamide] the value was 4.1 nM; for `Cc1nc(N2CCC(F)(F)CC2)c(C(=O)Nc2ccnc(S(N)(=O)=O)c2)cc1C1CCC1` [Example 15, 5-cyclobutyl-2-(4,4-difluoropiperidin-1-yl)-6-methyl-N-(2-sulfamoylpyridin-4-yl)nicotinamide], 6.5 nM; for `Cc1nc(N2CCC(F)(F)CC2)c(C(=O)Nc2ccnc(S(N)(=O)=O)c2)cc1C#CC1CC1` [Example 16, 5-(cyclopropylethynyl)-2-(4,4-difluoropiperidin-1-yl)-6-methyl-N-(2-sulfamoylpyridin-4-yl)nicotinamide], 12 nM. Next, `Cc1ccc(C(=O)Nc2ccnc(S(N)(=O)=O)c2)c(N2CCCC(F)(F)CC2)n1` [Example 17, 2-(4,4-difluoroazepan-1-yl)-6-methyl-N-(2-sulfamoylpyridin-4-yl)nicotinamide]: 3.1 nM; `NS(=O)(=O)c1cc(NC(=O)c2ccc(CC3CC3)nc2N2CCCC(F)(F)CC2)ccn1` [Example 18, 6-(cyclopropylmethyl)-2-(4,4-difluoroazepan-1-yl)-N-(2-sulfamoylpyridin-4-yl)nicotinamide]: 0.9 nM.

As for `Cc1cc(C(=O)Nc2ccnc(S(N)(=O)=O)c2)c(N2CCCC(F)(F)CC2)nc1C` [Example 19, 2-(4,4-difluoroazepan-1-yl)-5,6-dimethyl-N-(2-sulfamoylpyridin-4-yl)nicotinamide], the IC50 was determined as 1.6 nM. For `NS(=O)(=O)c1cc(NC(=O)c2cc(Cl)c(C3CC3)nc2N2CCCC(F)(F)CC2)ccn1` [Example 21, 5-chloro-6-cyclopropyl-2-(4,4-difluoroazepan-1-yl)-N-(2-sulfamoylpyridin-4-yl)nicotinamide] the value was 4.5 nM; for `NS(=O)(=O)c1cc(NC(=O)c2ccc(C3CC3)nc2N2CCCC(F)(F)CC2)ccn1` [Example 22, 6-cyclopropyl-2-(4,4-difluoroazepan-1-yl)-N-(2-sulfamoylpyridin-4-yl)nicotinamide], 3 nM. Next, `NS(=O)(=O)c1cc(NC(=O)c2cc(Cl)c(C3CCC3)nc2N2CCCC(F)(F)CC2)ccn1` [Example 23, 5-chloro-6-cyclobutyl-2-(4,4-difluoroazepan-1-yl)-N-(2-sulfamoylpyridin-4-yl)nicotinamide]: 2.6 nM.

In the case of `O=C(Nc1cnn(S(=O)(=O)C2CC2)c1)c1cc(C(F)(F)F)cnc1N1CCCC(F)(F)CC1` [Example 36, N-[1-(cyclopropylsulfonyl)-1H-pyrazol-4-yl]-2-(4,4-difluoroazepan-1-yl)-5-(trifluoromethyl)pyridine-3-carboxamide], the IC50 turned out to be 147 nM. Next, `NS(=O)(=O)c1cc(NC(=O)c2cc(CC3CC3)cnc2N2CCCC(F)(F)CC2)ccn1` [Example 46, 5-(cyclopropylmethyl)-2-(4,4-difluoroazepan-1-yl)-N-(2-sulfamoylpyridin-4-yl)nicotinamide]: 1 nM. For `Cc1nc(N2C[C@@H](C)C(F)(F)[C@@H](C)C2)c(C(=O)Nc2ccnc(S(N)(=O)=O)c2)cc1Cl` [Example 53, 5-chloro-2-[(3S,5R)-4,4-difluoro-3,5-dimethyl-1-piperidyl]-6-methyl-N-(2-sulfamoyl-4-pyridyl)pyridine-3-carboxamide] the value was 0.8 nM.

As to `NS(=O)(=O)c1cc(NC(=O)c2ccc(C(F)(F)F)nc2N2CCCC(F)(F)CC2)ccn1` [Example 132, 2-(4,4-difluoroazepan-1-yl)-N-(2-sulfamoylpyridin-4-yl)-6-(trifluoromethyl)nicotinamide], the IC50 stood at 5.3 nM. Turning to `NS(=O)(=O)c1cc(NC(=O)c2ccc(Cl)nc2N2CCCC(F)(F)CC2)ccn1` [Example 138, 6-chloro-2-(4,4-difluoroazepan-1-yl)-N-(2-sulfamoyl-4-pyridyl)pyridine-3-carboxamide], the IC50 came to 5.8 nM.

Take `C[C@@H]1CN(c2ncc(C(F)(F)F)cc2C(=O)Nc2ccnc(S(C)(=O)=O)c2)C[C@H](C)C1(F)F` [Example 147, 2-((3S,5R)-4,4-difluoro-3,5-dimethylpiperidin-1-yl)-N-(2-(methylsulfonyl)pyridin-4-yl)-5-(trifluoromethyl)nicotinamide]: the concentration for half-maximal inhibition (IC50) is 22 nM. For `C[C@@H]1CN(c2ncc(C(F)(F)F)cc2C(=O)Nc2ccnc(C(N)=O)c2)C[C@H](C)C1(F)F` [Example 156, 4-(2-((3S,5R)-4,4-difluoro-3,5-dimethylpiperidin-1-yl)-5 (trifluoromethyl)nicotinamido)picolinamide] the value was 58 nM. For `C[C@@H]1CN(c2nc(C3CCC3)ccc2C(=O)Nc2ccnc(S(N)(=O)=O)c2)C[C@H](C)C1(F)F` [Example 166, 6-cyclobutyl-2-((3S,5R)-4,4-difluoro-3,5-dimethylpiperidin-1-yl)-N-(2-sulfamoylpyridin-4-yl)nicotinamide], the IC50 came out at 13 nM. For the compound `C[C@@H]1CN(c2nc(C3CCC3)c(Cl)cc2C(=O)Nc2ccnc(S(N)(=O)=O)c2)C[C@H](C)C1(F)F` [Example 169, 5-chloro-6-cyclobutyl-2-((3S,5R)-4,4-difluoro-3,5-dimethylpiperidin-1-yl)-N-(2-sulfamoylpyridin-4-yl)nicotinamide], the IC50 was found to be 6.9 nM. For `Cc1nc(N2CCCC(F)(F)CC2)c(C(=O)Nc2ccnc(S(N)(=O)=O)c2)cc1Cl` [Example 172, 5-chloro-2-(4,4-difluoroazepan-1-yl)-6-methyl-N-(2-sulfamoylpyridin-4-yl)nicotinamide] the value was 0.3 nM. For `NS(=O)(=O)c1cc(NC(=O)c2cc(OC(F)(F)F)cnc2N2CCCC(F)(F)CC2)ccn1` [Example 177, 2-(4,4-difluoroazepan-1-yl)-N-(2-sulfamoylpyridin-4-yl)-5-(trifluoromethoxy)nicotinamide] the value was 2.8 nM.
